Earlier results in patent US11730619B2, “Systems and methods for determining failure of intragastric devices” (RESHAPE LIFESCIENCES INC., priority 2015, dated 2023).
Structures can show the parent of a compound that is named as a salt. Where two headings read alike, the source gives them in different places. One block for each molecule: values may come before it.

Tests used:
[1] = for Solubility: solvent not given
[2] = Meng et al. 2013
[3] = cell wraps: Generally well-tolerated in patients; Merck Index
[4] = pH 3

Molecule: CN(C)CCC=C1c2ccccc2CCc2ccccc21 [Amitriptyline Hydrochloride]
- LD50 (rats) (rat; rats, second of two values, Merck Index): 380 mg/kg
- Solubility in water ([1]; water, Merck Index): Salt is freely soluble in

Molecule: Cc1cc2nc3c(=O)[nH]c(=O)nc-3n(C[C@H](O)[C@H](O)[C@H](O)CO)c2cc1C [B vitamins (e.g. Riboflavin), Riboflavin]
- Solubility in water ([1]; Merck Index): Solubility: 1 g in 3 L g in 3 L water

Molecule: O=C1/C(=C2\Nc3ccc(S(=O)(=O)[O-])cc3C2=O)Nc2ccc(S(=O)(=O)[O-])cc21.[Na+].[Na+] [Indigo carmine]
- LD50 (rat, oral) (rat; rat, oral, Baker MSDS sheet): 2000 mg/kg (Baker MSDS sheet)

Molecule: Cc1cc2nc3c(=O)[nH]c(=O)nc-3n(C)c2cc1C [Lumiflavine]
- Solubility [1]: poor solubility
- Solubility in water ([1]; water, Merck Index): Very sparingly soluble in water

Molecule: O=C(O)c1cc(O)c2c(c1)[C@H]([C@H]1c3cc(C(=O)O)cc(O)c3C(=O)c3c(O[C@@H]4O[C@H](CO)[C@@H](O)[C@H](O)[C@H]4O)cccc31)c1cccc(O[C@@H]3O[C@H](CO)[C@@H](O)[C@H](O)[C@H]3O)c1C2=O [Sennoside A]
- Solubility in water ([1]; water, Merck Index): insoluble in water.

Molecule: O=C(O)c1cc(O)c2c(c1)[C@@H]([C@H]1c3cc(C(=O)O)cc(O)c3C(=O)c3c(O[C@@H]4O[C@H](CO)[C@@H](O)[C@H](O)[C@H]4O)cccc31)c1cccc(O[C@@H]3O[C@H](CO)[C@@H](O)[C@H](O)[C@H]3O)c1C2=O [Sennoside B]
- Solubility in water relative to Sennoside A ([1]; cell wraps: more soluble in water than Sennoside A, Merck): Sennoside B is more

Further lines, with some results ahead:

- Excretion in urine ([2]; stabilized in the urine): excreted mostly unaltered
Molecule: CN(C)c1ccc2c(c1)Sc1cc(N(C)C)ccc1N2 [Leukomethylene blue]

- Solubility in hot water ([1]; hot water, Merck Index): Sparingly soluble in hot water
- Solubility [1]: poor solubility
Molecule: Cc1cc2nc3[nH]c(=O)[nH]c(=O)c3nc2cc1C [Lumichrome]

- Water solubility ([1]; @ 20° C., Merck Index): Water soluble 2.5 g/100 g/100 mL
Molecule: COc1ccccc1OCC(O)COC(N)=O (centres unmarked) [Methocarbamol]
- Tolerability in patients [3]: Generally well-

- Solubility: parts water in which 1 part is soluble ([1]; 1 part soluble in 1000 parts water, Merck Index): 1 part soluble in 1000 parts water
Molecule: Nc1nc(N)c2nc(-c3ccccc3)c(N)nc2n1 [Triamterene]
- Tolerability in patients [3]: Generally well-

- Conversion on passage through the gastrointestinal tract [2]: reduced to leukomethylene blue
Molecule: CN(C)c1ccc2nc3ccc(=[N+](C)C)cc-3sc2c1 [methylene blue]

- pH range of stability [4]: Stable between pH 3
Molecule: Betalain [Betalain (including betanin)]
